Among the data in patent EP0514133A1, “Benzodiazepine derivatives, compositions containing them and their use in therapy” (priority 1991, dated 1992) are inhibition and IC50 values, retold here.

Like-named read-outs stand apart in the source and are kept apart here.

One assay concerns the target T1, CCK receptor (pancreas) (Rattus norvegicus, UniProt P30551).
T1 construct: The whole pancreas was dissected free of fat tissue and was homogenized; from tissue; host or cells: rat pancreas membrane homogenate
T1 sequence (P30551 1-444): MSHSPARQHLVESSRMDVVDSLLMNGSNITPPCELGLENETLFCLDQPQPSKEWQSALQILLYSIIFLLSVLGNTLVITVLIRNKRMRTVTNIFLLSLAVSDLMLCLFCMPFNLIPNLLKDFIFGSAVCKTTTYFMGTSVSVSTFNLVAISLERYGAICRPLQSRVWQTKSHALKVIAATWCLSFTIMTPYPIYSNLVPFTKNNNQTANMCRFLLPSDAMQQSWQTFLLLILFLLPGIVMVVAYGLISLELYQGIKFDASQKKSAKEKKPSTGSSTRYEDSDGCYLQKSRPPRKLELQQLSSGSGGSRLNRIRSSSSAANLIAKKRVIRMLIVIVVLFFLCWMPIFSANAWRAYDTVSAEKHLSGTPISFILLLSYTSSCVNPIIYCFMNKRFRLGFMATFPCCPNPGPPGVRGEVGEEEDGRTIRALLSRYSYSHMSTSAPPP
Put plainly: biochemical. It is filed as binding. The following applies: rat pancreas membranes; for IC50: 50 pM 125I-CCK-8, 25°C 2 hours. The method, then:
CCK-8 sulphated was radiolabelled with ¹²⁵I-Bolton Hunter reagent (2000 Ci/mmole). Receptor binding was performed according to Chang and Lotti (Proc. Natl. Acad. Sci. 83, 4923-4926, 1986) with minor modifications.
Male Sprague-Dawley rats (150-200g) were sacrificed by decapitation. The whole pancreas was dissected free of fat tissue and was homogenized in 25 volumes of ice-cold 10 mM N-2-hydroxyethyl-piperazine-N′-2-ethane sulphonic acid (HEPES) buffer with 0.1% soya bean trypsin inhibitor (pH 7.4 at 25°C) with a Kinematica Polytron. The homogenates were centrifuged at 47,800 g for 10 min. Pellets were resuspended in 10 volumes of binding assay buffer (20mM (HEPES)), 1mM ethylene glycol-bis-(β-aminoethylether-N,N′-tetraacetic acid) (EGTA), 5mM MgCl₂, 150 mM NaCl, bacitracin 0.25 mg/ml, soya bean trypsin inhibitor 0.1 mg/ml, and bovine serum albumin 2 mg/ml pH 6.5 at 25°C) using a Teflon (trademark) homogenizer, 15 strokes at 500 rpm. The homogenate was further diluted in binding assay buffer to give a final concentration of 0.5 mg original wet weight/1 ml buffer. […] All assays were run in duplicate. The reaction mixtures were incubated at 25°C for 2 hours and the reaction terminated by rapid filtration (Brandell 24 well cell harvester) over Whatman GF/C filters, washing 3 x 4 mls with ice-cold 100 Mm NaCl. The radioactivity on the filters was counted with a LKB gamma counter.
(§1) Drug displacement studies were performed with at least 10 concentrations of compounds of Formula I and the IC₅₀ values were determined by regression analysis IC₅₀ refers to the concentration of the compound required to inhibit 50% of specific binding of ¹²⁵I-CCK-8.

Assay [1] addresses T2, CCK receptor (brain, cortex) (Cavia porcellus, UniProt H0VZC5).
T2 construct: the cortex was removed and homogenized in 25 mL ice-cold 0.32 M sucrose; from tissue; host or cells: guinea pig brain cortex P2 membrane pellet
T2 sequence (H0VZC5 1-426): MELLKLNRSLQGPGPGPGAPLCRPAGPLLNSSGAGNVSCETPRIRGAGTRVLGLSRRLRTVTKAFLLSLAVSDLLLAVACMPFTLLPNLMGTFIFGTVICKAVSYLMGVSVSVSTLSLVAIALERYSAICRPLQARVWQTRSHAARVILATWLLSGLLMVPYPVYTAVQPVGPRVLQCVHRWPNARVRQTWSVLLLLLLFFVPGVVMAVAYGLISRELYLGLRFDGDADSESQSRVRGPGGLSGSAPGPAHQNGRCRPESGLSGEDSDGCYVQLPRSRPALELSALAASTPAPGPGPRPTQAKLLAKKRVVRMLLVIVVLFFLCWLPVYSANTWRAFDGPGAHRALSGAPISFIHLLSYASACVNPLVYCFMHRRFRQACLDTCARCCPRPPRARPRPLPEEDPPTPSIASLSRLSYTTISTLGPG
Put plainly: biochemical. It is filed as binding, guinea pig. The method, then:
CCK-8 sulphated was radiolabelled and the binding was performed according to the description for the pancreas method with minor modifications.
Male Hartley guinea pigs (300-500g) were sacrificed by decapitation and the cortex was removed and homogenized in 25 mL ice-cold 0.32 M sucrose. The homogenates were centrifuged at 1000 g for 10 minutes and the resulting supernatant was recentrifuged at 20,000 g for 20 minutes. The P₂ pellet was resuspended in binding assay buffer (20mM HEPES, 5 mM MgCl₂, 0.25 mg/ml bacitracin, 1 mM EGTA pH 6.5 at 25°C), using a Teflon (trademark) homogenizer (5 strokes at 500 rpm) to give a final concentration of 10 mg original wet weight/1.2 ml buffer. […] All assays were run in duplicate. The reaction mixtures were incubated at 25°C for 2 hours and then the reaction was terminated by rapid filtration (Brandell 24 well cell harvester) on Whatman GF/C filters with 3 x 5 ml washes of cold 100 mM NaCl. The radioactivity on the filters was counted with a LKB gamma counter.
as §1

Setting [2] is: guinea pig cortex membranes, 50 pM 125I-CCK-8, 25°C 2 hours, read-out: IC50 ^125I-CCK Brain.

On to `CC(C)CN1C(=O)C(NC(=O)Nc2cccc(-c3nn[nH]n3)c2)N=C(C2CCCCC2)c2ccccc21` (racemic) [Example 2, N-[3(R,S)-5-Cyclohexyl-2,3-dihydro-1-(2-methylpropyl)-2-oxo-1H-1,4-benzodiazepin-3-yl] N′-[3-tetrazol-5-ylphenyl] urea], for which the inhibition at 3 µM on CCK receptor (pancreas) (at 3μM, read-out: inhibition of ^125I-CCK binding, Pancreas) was approximately 27%. Moreover, the IC50 in assay [1] (setting [2]) was determined as 0.42 nM.
Take `CC(C)CN1C(=O)C(NC(=O)Nc2cccc(-c3nn[nH]n3)c2)N=C(C2CCCC2)c2ccccc21` (racemic) [Example 3, N-[3(R,S)-5-Cyclopentyl-2,3-dihydro-1-(2-methylpropyl)-2-oxo-1H-1,4-benzodiazepin-3-yl] N′-[3-tetrazol-5-ylphenyl]urea]: the results for the IC50 (at CCK receptor (pancreas); in assay [1] (setting [2])) were 800 nM and 0.3 nM, respectively.
The corresponding values for `CCN1C(=O)C(NC(=O)Nc2cccc(-c3nn[nH]n3)c2)N=C(C2CCCC2)c2ccccc21` (racemic) [Example 5, N-[3(R,S)-5-Cyclopentyl-2,3-dihydro-1-ethyl-2-oxo-1H-1,4-benzodiazepin-3-yl] N′-[3-tetrazol-5-ylphenyl]urea] are 140 nM and 0.71 nM.
Regarding `CCCN1C(=O)C(NC(=O)Nc2cccc(-c3nn[nH]n3)c2)N=C(C2CCCC2)c2ccccc21` (racemic) [Example 6, N-[3(R,S)-5-Cyclopentyl-2,3-dihydro-1-propyl-2-oxo-1H-1,4-benzodiazepin-3-,yl] N′-[3-tetrazol-5-ylphenyl] urea], the figures for the IC50 (on CCK receptor (pancreas); in assay [1] (setting [2])) were 1100 nM and 0.96 nM, respectively.
Taken in the same sequence, the figures for `CN1C(=O)C(NC(=O)Nc2cccc(-c3nn[nH]n3)c2)N=C(C2CCCC2)c2ccccc21` (racemic) [Example 8, N-[3(R,S)-5-Cyclopentyl-2,3-dihydro-1-methyl-2-oxo-1H-1,4-benzodiazepin-3-yl] N′-[3-tetrazol-5-ylphenyl] urea] were 56 nM and 1.6 nM.
Take `CN1C(=O)C(NC(=O)Nc2cccc(C(=O)O)c2)N=C(C2CCCCC2)c2ccccc21` (racemic) [Example 10, N-[3(R,S)-5-Cyclohexyl-2,3-dihydro-1-methyl-2-oxo-1H-1,4-benzodiazepin-3-yl] N′-[3-carboxyphenyl] urea]: the IC50 was 3.1 nM on CCK receptor (pancreas) and 1.4 nM in assay [1].
For `CC(C)C(=O)NS(=O)(=O)c1cccc(NC(=O)NC2N=C(C3CCCCC3)c3ccccc3N(C)C2=O)c1` (racemic) [Example 11, N-[3(R,S)-5-Cyclohexyl-2,3-dihydro-1-methyl-2-oxo-1H-1,4-benzodiazepin-3-yl] N′-(3-(isopropylcarbonylaminosulphonyl)phenyl] urea], the figures for the IC50 (at CCK receptor (pancreas); in assay [1] (setting [2])) were 118 nM and 0.32 nM, respectively.
`CN1C(=O)C(NC(=O)Nc2cccc(S(=O)(=O)NC(=O)c3ccccc3)c2)N=C(C2CCCCC2)c2ccccc21` (racemic) [Example 13, N-(3(R,S)-5-Cyclohexyl-2,3-dihydro-1-methyl-2-oxo-1H-1,4-benzodiazepin-3-yl] N′-[3-(phenylcarbonylaminosulphonyl)phenyl] urea]: the IC50 against CCK receptor (pancreas) came out at 738 nM.
`CN1C(=O)C(NC(=O)Nc2cccc(C(=O)NS(=O)(=O)c3ccccc3)c2)N=C(C2CCCCC2)c2ccccc21` (racemic) [Example 14, N-[3(R,S)-5-Cyclohexyl-2,3-dihydro-1-methyl-2-oxo-1H-1,4-benzodiazepin-3-yl] N′-[3-(phenylsulphonylaminocarbonyl)phenyl] urea]: the IC50 at CCK receptor (pancreas) was 11.1 nM; in assay [1] (setting [2]), 0.58 nM.
`CN1C(=O)C(NC(=O)Nc2cccc(C(=O)NS(C)(=O)=O)c2)N=C(C2CCCCC2)c2ccccc21` (racemic) [Example 16, N-(3(R,S)-5-Cyclohexyl-2,3-dihydro-1-methyl-2-oxo-1H-1,4-benzodiazepin-3-yl] N′-[3-(methylsulphonylaminocarbonyl)phenyl] urea]: the midpoint of inhibition against CCK receptor (pancreas), the IC50, lay at 2 nM.
Regarding `CN1C(=O)C(NC(=O)Nc2cccc(C(=O)NS(=O)(=O)C(F)(F)F)c2)N=C(C2CCCCC2)c2ccccc21` (racemic) [Example 18, N-[3(R,S)-5-Cyclohexyl-2,3-dihydro-1-methyl-2-oxo-1H-1,4-benzodiazepin-3-,yl] N′-[3-(trifluoromethylsulphonylaminocarbonyl)phenyl] urea], the IC50 worked out at 13.8 nM against CCK receptor (pancreas) and 0.09 nM in assay [1] (setting [2]).
The corresponding values for `CC(C)CN1C(=O)C(NC(=O)Nc2cccc(C(=O)NS(C)(=O)=O)c2)N=C(C2CCCCC2)c2ccccc21` (racemic) [Example 19, N-(3(R,S)-5-Cyclohexyl-2,3-dihydro-1-(2-methylpropyl)-2-oxo-1H-1,4-benzodiazepin-3-yl] N′-[3-(methylsulphonylaminocarbonyl)phenyl] urea] are 570 nM and 12 nM.
The corresponding values for `CN1C(=O)C(NC(=O)Nc2cccc(S(=O)(=O)Nc3nncs3)c2)N=C(C2CCCCC2)c2ccccc21` (racemic) [Example 21, N-[3(R,S)-5-Cyclohexyl-2,3-dihydro-1-methyl-2-oxo-1H-1,4-benzodiazepin-3-yl] N′-[3-(1,3,4-thiadiazol-2-ylaminosulphonyl)phenyl]urea] are 9.7 nM and 1.2 nM.
On to `CCS(=O)(=O)NC(=O)c1cccc(NC(=O)NC2N=C(C3CCCCC3)c3ccccc3N(C)C2=O)c1` (racemic) [Example 23, N-[3(R,S)-5-Cyclohexyl-2,3-dihydro-1-methyl-2-oxo-1H-1,4-benzodiazepin-3-yl] N′-[3-(ethylsulphonylaminocarbonyl)phenyl]urea], for which the IC50 at CCK receptor (pancreas) is 5 nM; in assay [1] (setting [2]) it was 0.96 nM.
As for `CN1C(=O)C(NC(=O)Nc2cccc(C(=O)NS(=O)(=O)c3ccccc3)c2)N=C(C2CCCC2)c2ccccc21` (racemic) [Example 40, N-[3(R,S)-5-Cyclopentyl-2,3-dihydro-1-methyl-2-oxo-1H-1,4-benzodiazepin-3-yl] N′-[3-(phenylsulphonylaminocarbonyl)phenyl] urea], the IC50 against CCK receptor (pancreas) is 310 nM.
On to `Cc1cccc(NC(=O)NC2N=C(C3CCCCC3)c3ccccc3N(C)C2=O)c1` (single isomer, unassigned) [7 (Peak B)], for which, in assay [1] (setting [2]), the IC50 worked out at 100 nM.
On CCK receptor (pancreas), `CC(C)S(=O)(=O)NC(=O)c1cccc(NC(=O)NC2N=C(C3CCCCC3)c3ccccc3N(C)C2=O)c1` (single isomer, unassigned) [24 (Peak B)] yielded an IC50 of 5 nM.
Regarding `Cc1ccccc1S(=O)(=O)NC(=O)c1cccc(NC(=O)N[C@@H]2N=C(C3CCCCC3)c3ccccc3N(C)C2=O)c1` [Example 33, N-[3(R)-5-Cyclohexyl-2,3-dihydro-1-methyl-2-oxo-1H-1,4-benzodiazepin-3-yl] N′-[3-(2-methylphenylsulphonylaminocarbonyl)phenyl] urea], the IC50 on CCK receptor (pancreas) worked out at 1600 nM.
